In PMC6050274, “Buparlisib is a brain penetrable pan-PI3K inhibitor” (Scientific Reports, 2018):

Assay: Plasma and brain levels after oral administration in wildtype mice
Format: in vivo, FVB mice
Protocol: First, we could confirm that buparlisib also achieves excellent brain penetration after oral administration, since the observed brain-plasma ratio in WT FVB mice was in line with those obtained following i.v. administration (Figs 2C, 3A).
Figure 3 Buparlisib has excellent intracranial target engagement and oral bioavailability. (A) Buparlisib was orally administered to wildtype mice at a dose of 1 mg/kg, 2 mg/kg or 5 mg/kg. One hour after injection, blood and tissues were collected for LC-MS/MS analysis. Buparlisib plasma and brain levels increase dose-dependently, yielding similar and excellent brain-plasma ratios at all dose levels that were tested. (B) Immunoblotting of brain tissue lysates from (A). […] (C) Plasma-time curves of male and female wildtype mice following intravenous (2 mg/kg) or oral (5 mg/kg) administration. […] The oral bioavailability of buparlisib is excellent, since oral and intravenous administration yielded similar dose-adjusted AUCs (see Table 1). All data are represented as mean ± SD (n = 4).
The pharmacokinetics of buparlisib were analysed in WT, Abcg2^−/−, Abcb1a/b^−/− and Abcb1a/b; Abcg2^−/− FVB mice. All knockout mice strains have been developed within our institute[41]–[43]. For i.v. administration, buparlisib was dissolved in DMSO and injected at a dose of 2 mg/kg. For oral administration, buparlisib was formulated in DMSO:Cremophor EL:water (1:1:8 v/v/v) and administered at 1, 2 or 5 mg/kg as indicated. Tail vein bleeding was used to collect blood at intermediate time points, whereas at the last time point blood was drawn by cardiac puncture and various tissue were collected. Plasma was obtained from whole blood by centrifugation (5 min, 5,000 rpm, 4 °C). After weighing, tissues were homogenized using a FastPrep®-24 (MP-Biomedicals, NY) in 1% (w/v) bovine serum albumin in water. […]
Buparlisib was measured in samples from in vitro transport assays and in vivo pharmacokinetic studies using an LC-MS/MS system comprised of an UltiMate 3000 LC Systems (Dionex, Sunnyvale, CA) and an API 4000 mass spectrometer (Sciex, Framingham, MA). […]

Question: What does the source list for `Nc1cc(C(F)(F)F)c(-c2cc(N3CCOCC3)nc(N3CCOCC3)n2)cn1` [buparlisib]?
Answer: Kp at 1 h (FVB, mouse, brain/plasma, other: intravenous and oral, i.v. 2 mg/kg and oral 1, 2, 5 mg/kg (Figs 2C, 3A), read-out: brain-plasma ratio): 1.5 to 2; concentration at 1 h (FVB, mouse, plasma, 5 mg/kg oral, WT mice, 1 hour, read-out: plasma level): ~1200 ng/mL; change of plasma and brain concentrations with dose (oral 1, 2, 5 mg/kg, WT mice, 1 hour): dose-proportional increase
